Converted amounts (≈) assume the structure as drawn. “Also recorded” adds a separate entry of the source. Read-outs that look alike come from different tables or passages of the source.
How the values were obtained:
G93A-SOD1 expression = assay: SOD1 protein expression in cultured fibroblasts from G93A-SOD1 mice (ELISA); assay type: cell-based, mouse; settings: for activity at 10 µM: Mus musculus, 48 h, 10 μM compound; for Effect on SOD1 expression (in words) / Shape of dose-response curve for SOD1 expression / IC50: G93A-SOD1 mouse fibroblasts
Protocol: Fibroblasts were treated with the title compounds at the indicated concentration for 48 hr. Cells were washed, lysed, and SOD1 levels measured by ELISA. SOD1 levels are normalized to the total protein in the lysate.
Thus, we used cultured fibroblasts from the G93A-SOD1 transgenic mouse to screen GSK3β protein kinase inhibitors (FIG. 1) for their effects on SOD1 expression. The transgene construct contains the human SOD1 promoter so that cellular signaling processes that affect transcription of the gene will be fully functional. We chose a structurally diverse group of compounds including some natural products.

[1] = Distribution in tissues of nontransgenic mice after injection; assay type: in vivo, mouse; settings: for Concentration (μM), Brain / Concentration (μM), Serum / Concentration (μM), Spinal cord: n = 2; for CNS distribution and persistence (in words): nontransgenic mice; for concentration at 2 h / concentration at 4 h / concentration at 24 h: mouse, other: injection, 10 mg/kg injection
Protocol: The blood brain barrier permeability of GSK3B-II was determined in nontransgenic mice. […] The peak and sustained concentrations found in the spinal cord and brain indicate that the 20 mg/kg dose puts the drug into the inhibitory range found in the cellular assays.
(§1) We also tested compound NUCC-434 for distribution in non-transgenic mice. […] While there are a multitude of methods for improving aqueous solubility of drugs (32) we chose a relatively simple route using a cyclodextrin based carrier (Sulfo-butylether beta-cyclodextrin, Captisol) to solubilize the drug in aqueous solution. Using the cyclodextrin carrier, we were able to solubilize NUCC-434 to 2 mg/mL in water and deliver 10 mg/kg to nontransgenic mice for pharmacokinetics. […] However, the distribution dynamics are different in the presence of the cyclodextrin which appears to slow uptake into the CNS as the peak drug concentration was delayed (Table 4). Such changes in distribution dynamics using cyclodextrins have not been studied in detail.

SOD1 mRNA = SOD1 mRNA in G93A-SOD1 mouse fibroblasts; assay type: cell-based
Description: FIG. 3. […] A. Dose-dependent changes in G93A-SOD1 protein expression and B. SOD1 mRNA (n=3). Data are normalized to GAPDH activity (protein) or mRNA. Error bars are SEM.

SOD1 = SOD1 protein in CNS tissues of treated G93A-SOD1 mice (ELISA); assay type: in vivo, mouse; settings: 20 mg/kg IP every other day for 26 days
Protocol: FIG. 7. Inhibition of SOD1 protein expression in the G93A-SOD1 mouse. GSK3B-I treatment was at 20 mg/kg IP every other day for 26 days. Mice were sacrificed and SOD1 measured in the indicated tissues. […] Error bars are SEM.
Initial testing was carried out in a small cohort (5-6 animals) of G93A-SOD1 mice (high level of mutant SOD1 expression). The drug was dosed at 20 mg/kg IP every other day for 26 days. Mice were sacrificed and SOD1 was measured by ELISA.

SOD1 expression = SOD1 expression in G93A-SOD1 transgenic mouse motor neurons; assay type: cell-based
Description: The compound decreases SOD1 expression in vitro in assays done in mouse fibroblasts (FIG. 3) and mouse motor neurons (FIG. 7).
The mechanism of inhibition is largely due to a decrease in the G93A-SOD1 mRNA. The transgene expressed in the mouse uses the native human promoter. Thus, therapy with these drugs in human subjects would also lead to a decrease in SOD1 mRNA in all tissues.

cell toxicity [2] = settings: cited from earlier work
CDK5, CDK2, CDK1, CDK4 = settings: cited from earlier work
[3] = Solubility in dosing vehicle; assay type: physicochemical
Protocol: as §1

cell toxicity [4] = assay: Cell toxicity; assay type: cell-based
GSK3β = GSK3β (Homo sapiens, UniProt P49841); settings: published values; cited from earlier work
Chain of GSK3β (P49841 whole entry, species assumed): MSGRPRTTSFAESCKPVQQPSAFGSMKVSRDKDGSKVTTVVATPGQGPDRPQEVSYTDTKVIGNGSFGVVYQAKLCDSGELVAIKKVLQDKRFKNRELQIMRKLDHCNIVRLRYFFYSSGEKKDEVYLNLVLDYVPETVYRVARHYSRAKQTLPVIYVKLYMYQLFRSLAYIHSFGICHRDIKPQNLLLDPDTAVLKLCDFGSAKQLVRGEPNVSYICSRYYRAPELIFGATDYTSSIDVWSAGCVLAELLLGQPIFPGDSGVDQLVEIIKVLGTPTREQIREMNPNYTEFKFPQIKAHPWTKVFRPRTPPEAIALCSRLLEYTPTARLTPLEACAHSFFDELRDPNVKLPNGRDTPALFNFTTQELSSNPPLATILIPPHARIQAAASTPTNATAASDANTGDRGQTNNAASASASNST

[5] = Fibroblast, Table 2, relative to control, read-out: Relative SOD1 expression 10 μM compound
[6] = Fibroblast, Table 5, read-out: Relative SOD1 Expression in Presence of Compound (10 μM)
[7] = 20 mg/kg intraperitoneal, 24 hr
[8] = brain, cyclodextrin carrier, read-out: Brain
[9] = serum, cyclodextrin carrier, read-out: Serum
[10] = spinal cord, cyclodextrin carrier, read-out: Spinal Cord

| SMILES | activity at 10 µM (G93A-SOD1 expression; [5]) | activity at 10 µM (G93A-SOD1 expression; [6]) | Effect on SOD1 expression (in words) (G93A-SOD1 expression) | further results |
| --- | --- | --- | --- | --- |
| Brc1cccc(CSc2nnc(-c3ccncc3)o2)c1 [NUCC-318] | 91% | 90.3% | – | – |
| Fc1cccc(CSc2nnc(-c3ccncc3)o2)c1 [NUCC-319] | 143% | 144% | significant increase in SOD1 expression | – |
| CSc1nnc(-c2ccnc(Nc3ccccc3)c2)o1 [NUCC-0000471] | – | 106% | – | – |
| Brc1ccc(CSc2nnc(-c3cccnc3)o2)cc1 [NUCC-322] | – | 68.6% | – | SOD1 expression, % of control (G93A-SOD1 expression; 10 μM): 68.6 % of control |
| Cc1ccc(CSc2nnc(-c3ccncc3)o2)cc1 [NUCC-436] | 126% | 126% | – | – |
| O=C1Nc2cc(Br)ccc2/C1=C1/Nc2ccccc2/C1=N\O [GSK3B-IX, reference compound] | – | – | increased SOD1 expression | – |
| Brc1ccc(CSc2nnc(-c3ccncc3)o2)cc1 [NUCC-320] | 103% | 103% | no effect on SOD1 expression | – |
| Ic1cccc(CSc2nnc(-c3ccncc3)o2)c1 [GSK3B-II, reference compound] | – | – | most potent at inhibiting G93A-SOD1 expression; also recorded: dose dependent reduction of SOD1 expression in vitro | Concentration (μM), Brain ([1]; 20 mg/kg intraperitoneal, 1 hr): 0.944 µM; Concentration (μM), Serum ([1]; 20 mg/kg intraperitoneal, 1 hr): 0.672 µM; Concentration (μM), Spinal cord ([1]; 20 mg/kg intraperitoneal, 1 hr): 4.00 µM; Concentration (μM), Brain [1, 7]: 0.077 µM; Concentration (μM), Serum [1, 7]: 0.073 µM; Concentration (μM), Spinal cord [1, 7]: 0.855 µM; CNS distribution and persistence (in words) ([1]; 20 mg/kg intraperitoneal): rapidly distributes into the brain and spinal cord; also recorded: still detectable after 24 hrs in the brain and spinal cord; Effect on SOD1 mRNA (SOD1 mRNA): reducing the level of SOD1 mRNA; Change of SOD1 protein in spinal cord, cerebellum, brain stem, cerebral cortex (SOD1): significant decreases in SOD1 were measured; also recorded: SOD1 protein is reduced; Change of SOD1 protein in spinal cord, cerebellum, brain stem, cerebral cortex (SOD1; listed as GSK3B-I): change in expression was significant; Effect on SOD1 expression in motor neurons (SOD1 expression): inhibits SOD1 expression; Shape of dose-response curve for SOD1 expression (G93A-SOD1 expression): biphasic dose-response curve; IC50 (G93A-SOD1 expression; 48 hr treatment): 625 nM |
| c1ccc(CSc2nnc(-c3ccncc3)o2)cc1 [NUCC-441] | 133% | 133% | activates expression of SOD1 | – |
| O=[N+]([O-])c1cccc(CSc2nnc(-c3ccncc3)o2)c1 [NUCC-432] | 117% | 117% | tended to cause an increase in SOD1 expression | – |
| CSc1nnc(-c2ccnc(NC3CCOCC3)c2)o1 [NUCC-0000473] | – | 127% | – | – |
| Clc1ccc(CSc2nnc(-c3ccncc3)o2)cc1 [NUCC-440] | 123% | 123% | tended to cause an increase in SOD1 expression | – |
| Cn1cc(C2=C(c3ccc(Cl)cc3Cl)C(=O)NC2=O)c2ccccc21 [SB216763, reference compound] | – | – | not more effective at decreasing SOD1 expression in vitro | IC50 (G93A-SOD1 expression; Fibroblast, 48 hr treatment): 3000 nM |
| CCc1nc(N)nc(N)c1-c1ccc(Cl)cc1 [pyrimethamine] | – | – | – | Cell toxicity in vitro (cell toxicity [2]): cell toxicity in the effective dose range |
| COc1cccc(CSc2nnc(-c3ccncc3)o2)c1 [NUCC-433] | 50% | 49.9% | dose dependent reduction of SOD1 expression in vitro | Shape of dose-response curve for SOD1 expression (G93A-SOD1 expression): flattened rather than upward curvature at higher concentration |
| Clc1cccc(CSc2nnc(-c3ccncc3)o2)c1 [NUCC-439] | 96% | 95.9% | – | – |
| O=C1Cc2c([nH]c3ccc(Br)cc23)-c2ccccc2N1 [Kenpaullone, reference compound] | – | – | only weakly decreased SOD1 expression | Comments: other kinases inhibited (CDK5, CDK2, CDK1, CDK4): Also inhibits CDK5,; IC50 (G93A-SOD1 expression; Fibroblast, 48 hr treatment): 10000 nM |

| SMILES | activity at 10 µM (G93A-SOD1 expression; [5]) | activity at 10 µM (G93A-SOD1 expression; [6]) | Effect on SOD1 expression (in words) (G93A-SOD1 expression) | further results |
| --- | --- | --- | --- | --- |
| Cn1c(SCc2ccc(Br)cc2)nnc1-c1ccncc1 [NUCC-0000323] | – | 103% | – | – |
| c1cncc(CSc2nnc(-c3ccncc3)o2)c1 [NUCC-438] | – | 112% | not significantly different from control | – |
| Cc1cc(-c2nnc(SCc3ccc(F)cc3)o2)ccn1 [NUCC-0000405] | – | 95% | – | – |
| N#Cc1ccc(-c2ccc(CSc3nnc(-c4ccc5c(c4)OCO5)o3)cc2)cc1 [NUCC-0000418] | – | 114% | – | – |
| c1cc(CSc2nnc(-c3ccncc3)o2)ccn1 [NUCC-437] | – | 90.3% | not significantly different from control | – |
| Fc1ccc(CSc2nnc(-c3ccncc3)o2)cc1 [NUCC-324] | 86% | 86.3% | – | – |
| COc1ccc(CSc2nnc(-c3ccncc3)o2)cc1 [NUCC-434] | 47% | 47.4% | dose dependent reduction of SOD1 expression in vitro | CNS distribution and persistence (in words) ([1]; 10 mg/kg, cyclodextrin carrier): entered the CNS and persisted for 24 hr in the spinal cord; concentration at 2 h [1, 8]: 29 nM; concentration at 4 h [1, 8]: 47 nM; concentration at 2 h [1, 9]: 153 nM; concentration at 4 h [1, 9]: 334 nM; concentration at 24 h ([1]; serum, cyclodextrin carrier, 24 hr, read-out: Serum): 123 nM; concentration at 2 h [1, 10]: 57 nM; concentration at 4 h [1, 10]: 162 nM; concentration at 24 h ([1]; spinal cord, cyclodextrin carrier, 24 hr, read-out: Spinal Cord): 113 nM; Solubility in standard 1-2% DMSO vehicle ([3]; 1-2% DMSO vehicle): poor; solubility ([3]; aqueous with cosolvent or surfactant or cyclodextrin, Sulfo-butylether beta-cyclodextrin (Captisol) in water, read-out: Solubility in water with cyclodextrin carrier): 2000 µg/mL (≈ 6.68 mM); Shape of dose-response curve for SOD1 expression (G93A-SOD1 expression): flattened rather than upward curvature at higher concentration |
| CSc1nnc(-c2ccncc2-c2ccc(F)cc2)o1 [NUCC-0000404] | – | 94.9% | – | – |
| O=c1c(C2=NC3C=CC=CC3N2)coc2ccc(Cl)cc12 (centres unmarked) [NUCC-0000406] | – | 89.9% | – | – |
| FC(F)(F)c1ccc(CSc2nnc(-c3ccncc3)o2)cc1 [NUCC-435] | 157% | 158% | significant increase in SOD1 expression | – |
| O=C(CCl)c1cc(Br)c(Br)s1 [GSK3B-VI, reference compound] | – | – | inhibits SOD1 expression | Concentration at which cell toxicity is exhibited (cell toxicity [4]): greater than 5 μM; IC50 (GSK3β): 1000 nM; IC50 (G93A-SOD1 expression; 48 hr treatment): 650 nM |
| Ic1ccc(CSc2nnc(-c3ccncc3)o2)cc1 [NUCC-321] | 69% | 70.2% | – | – |
| CCCCc1c(-c2ccc(O)cc2)[nH]c2nccnc12 [Aloisine, Aloisine A, reference compound] | – | – | increased SOD1 expression | Comments: other kinases inhibited (CDK5, CDK2, CDK1, CDK4): Also inhibits CDK5,; Effect on SOD1 expression (in words) (G93A-SOD1 expression; 48 hr treatment): Increases SOD1 |
| CSc1nnc(-c2ccnc(NCc3ccccc3)c2)o1 [NUCC-0000472] | – | 146% | – | – |
| O=[N+]([O-])c1ccccc1CSc1nnc(-c2ccncc2)o1 [NUCC-0000430] | – | 101% | – | – |
| O=[N+]([O-])c1ccc(CSc2nnc(-c3ccncc3)o2)cc1 [NUCC-431] | 102% | 102% | – | – |

Reference: patent publication US9669014B2, “Small molecule inhibitors of superoxide dismutase expression” (Northwestern University, priority 2014, dated 2017)
